Experimental data reported in the kinase profiling compilation of Christmann-Franck et al. (2016).

Assays:
Assay in all cases: KINOMEscan competition binding
Conditions in all cases: compound 10.0 µM
MST1R (human) = MST1R (human) (UniProt Q04912)
WEE1 (human) = WEE1 (human) (UniProt P30291)
MTOR (human) = MTOR (human) (UniProt P42345)
DCLK2 (human) = DCLK2 (human) (UniProt Q8N568)
AAK1 (human) = AAK1 (human) (UniProt Q2M2I8)
CDC42BPG (human) = CDC42BPG (human) (UniProt Q6DT37)
RPS6KB1 (human) = RPS6KB1 (human) (UniProt P23443)
MAP3K6 (human) = MAP3K6 (human) (UniProt O95382)
BRSK1 (human) = BRSK1 (human) (UniProt Q8TDC3)
PRKCQ (human) = PRKCQ (human) (UniProt Q04759)
NEK5 (human) = NEK5 (human) (UniProt Q6P3R8)
TTK (human) = TTK (human) (UniProt P33981)
PAK4 (human) = PAK4 (human) (UniProt O96013)
MAPK4 (human) = MAPK4 (human) (UniProt P31152)
PIP4K2B (human) = PIP4K2B (human) (UniProt P78356)
MAP3K7 (human) = MAP3K7 (human) (UniProt O43318)
CAMK2B (human) = CAMK2B (human) (UniProt Q13554)
DAPK2 (human) = DAPK2 (human) (UniProt Q9UIK4)
CSF1R (human) = CSF1R (human) (UniProt P07333)
SIK3 (human) = SIK3 (human) (UniProt Q9Y2K2)
MAPK13 (human) = MAPK13 (human) (UniProt O15264)
CSNK1G3 (human) = CSNK1G3 (human) (UniProt Q9Y6M4)
STK11 (human) = STK11 (human) (UniProt Q15831)
GSK3A (human) = GSK3A (human) (UniProt P49840)
ULK1 (human) = ULK1 (human) (UniProt O75385)
GAK (human) = GAK (human) (UniProt O14976)
STK32A (human) = STK32A (human) (UniProt Q8WU08)
MAP4K2 (human) = MAP4K2 (human) (UniProt Q12851)
NEK1 (human) = NEK1 (human) (UniProt Q96PY6)
[1] = target: JAK2 JH1 catalytic (human) (UniProt O60674)
PDGFRB (human) = PDGFRB (human) (UniProt P09619)
[2] = test system: KIT (human), P10721 [A829P]
MAPK7 (human) = MAPK7 (human) (UniProt Q13164)
MAP3K15 (human) = MAP3K15 (human) (UniProt Q6ZN16)
HIPK1 (human) = HIPK1 (human) (UniProt Q86Z02)
CDK7 (human) = CDK7 (human) (UniProt P50613)
TAOK1 (human) = TAOK1 (human) (UniProt Q7L7X3)
TGFBR2 (human) = TGFBR2 (human) (UniProt P37173)
PIM2 (human) = PIM2 (human) (UniProt Q9P1W9)
PRKACA (human) = PRKACA (human) (UniProt P17612)

Sequence of GSK3A (human) (P49840 whole entry, looked up): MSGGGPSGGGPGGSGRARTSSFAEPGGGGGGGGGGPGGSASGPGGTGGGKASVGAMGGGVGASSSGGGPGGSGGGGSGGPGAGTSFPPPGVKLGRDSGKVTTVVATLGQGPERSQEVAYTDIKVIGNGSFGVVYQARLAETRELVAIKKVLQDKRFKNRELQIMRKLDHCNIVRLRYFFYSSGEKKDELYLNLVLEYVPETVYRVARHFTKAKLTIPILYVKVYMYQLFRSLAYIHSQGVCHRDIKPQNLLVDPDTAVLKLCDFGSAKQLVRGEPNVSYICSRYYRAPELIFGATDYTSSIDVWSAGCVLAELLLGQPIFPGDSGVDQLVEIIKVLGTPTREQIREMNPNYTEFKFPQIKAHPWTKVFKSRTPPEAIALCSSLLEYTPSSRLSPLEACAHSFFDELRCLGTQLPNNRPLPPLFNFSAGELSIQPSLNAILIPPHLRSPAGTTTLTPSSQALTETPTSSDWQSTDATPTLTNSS
Sequence of PIM2 (human) (Q9P1W9 whole entry, looked up): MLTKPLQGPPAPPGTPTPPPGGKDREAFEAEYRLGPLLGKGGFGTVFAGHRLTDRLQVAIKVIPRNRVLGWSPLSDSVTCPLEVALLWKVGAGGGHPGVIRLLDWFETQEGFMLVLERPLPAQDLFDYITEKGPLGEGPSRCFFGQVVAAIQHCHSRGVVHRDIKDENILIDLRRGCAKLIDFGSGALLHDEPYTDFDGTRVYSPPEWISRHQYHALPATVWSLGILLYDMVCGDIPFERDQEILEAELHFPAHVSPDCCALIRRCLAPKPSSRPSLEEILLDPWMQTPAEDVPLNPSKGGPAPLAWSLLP
Sequence of MAP3K7 (human) (O43318 whole entry, looked up): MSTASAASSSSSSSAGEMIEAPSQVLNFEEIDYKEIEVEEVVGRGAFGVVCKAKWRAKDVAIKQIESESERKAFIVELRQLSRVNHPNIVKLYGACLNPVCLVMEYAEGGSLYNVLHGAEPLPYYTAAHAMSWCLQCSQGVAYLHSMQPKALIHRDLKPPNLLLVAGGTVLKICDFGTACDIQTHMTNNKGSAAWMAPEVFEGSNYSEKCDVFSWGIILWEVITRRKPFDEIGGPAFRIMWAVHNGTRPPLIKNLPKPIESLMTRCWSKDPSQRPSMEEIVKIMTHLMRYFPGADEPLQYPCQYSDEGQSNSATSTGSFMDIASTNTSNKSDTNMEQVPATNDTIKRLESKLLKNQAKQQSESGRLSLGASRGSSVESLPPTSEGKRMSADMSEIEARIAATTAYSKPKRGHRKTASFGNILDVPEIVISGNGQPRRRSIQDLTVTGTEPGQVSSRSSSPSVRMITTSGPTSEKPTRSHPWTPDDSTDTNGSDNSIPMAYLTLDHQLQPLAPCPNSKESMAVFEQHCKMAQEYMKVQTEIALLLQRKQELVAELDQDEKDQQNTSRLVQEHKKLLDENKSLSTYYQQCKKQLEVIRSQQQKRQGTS
Sequence of MST1R (human) (Q04912 whole entry, looked up): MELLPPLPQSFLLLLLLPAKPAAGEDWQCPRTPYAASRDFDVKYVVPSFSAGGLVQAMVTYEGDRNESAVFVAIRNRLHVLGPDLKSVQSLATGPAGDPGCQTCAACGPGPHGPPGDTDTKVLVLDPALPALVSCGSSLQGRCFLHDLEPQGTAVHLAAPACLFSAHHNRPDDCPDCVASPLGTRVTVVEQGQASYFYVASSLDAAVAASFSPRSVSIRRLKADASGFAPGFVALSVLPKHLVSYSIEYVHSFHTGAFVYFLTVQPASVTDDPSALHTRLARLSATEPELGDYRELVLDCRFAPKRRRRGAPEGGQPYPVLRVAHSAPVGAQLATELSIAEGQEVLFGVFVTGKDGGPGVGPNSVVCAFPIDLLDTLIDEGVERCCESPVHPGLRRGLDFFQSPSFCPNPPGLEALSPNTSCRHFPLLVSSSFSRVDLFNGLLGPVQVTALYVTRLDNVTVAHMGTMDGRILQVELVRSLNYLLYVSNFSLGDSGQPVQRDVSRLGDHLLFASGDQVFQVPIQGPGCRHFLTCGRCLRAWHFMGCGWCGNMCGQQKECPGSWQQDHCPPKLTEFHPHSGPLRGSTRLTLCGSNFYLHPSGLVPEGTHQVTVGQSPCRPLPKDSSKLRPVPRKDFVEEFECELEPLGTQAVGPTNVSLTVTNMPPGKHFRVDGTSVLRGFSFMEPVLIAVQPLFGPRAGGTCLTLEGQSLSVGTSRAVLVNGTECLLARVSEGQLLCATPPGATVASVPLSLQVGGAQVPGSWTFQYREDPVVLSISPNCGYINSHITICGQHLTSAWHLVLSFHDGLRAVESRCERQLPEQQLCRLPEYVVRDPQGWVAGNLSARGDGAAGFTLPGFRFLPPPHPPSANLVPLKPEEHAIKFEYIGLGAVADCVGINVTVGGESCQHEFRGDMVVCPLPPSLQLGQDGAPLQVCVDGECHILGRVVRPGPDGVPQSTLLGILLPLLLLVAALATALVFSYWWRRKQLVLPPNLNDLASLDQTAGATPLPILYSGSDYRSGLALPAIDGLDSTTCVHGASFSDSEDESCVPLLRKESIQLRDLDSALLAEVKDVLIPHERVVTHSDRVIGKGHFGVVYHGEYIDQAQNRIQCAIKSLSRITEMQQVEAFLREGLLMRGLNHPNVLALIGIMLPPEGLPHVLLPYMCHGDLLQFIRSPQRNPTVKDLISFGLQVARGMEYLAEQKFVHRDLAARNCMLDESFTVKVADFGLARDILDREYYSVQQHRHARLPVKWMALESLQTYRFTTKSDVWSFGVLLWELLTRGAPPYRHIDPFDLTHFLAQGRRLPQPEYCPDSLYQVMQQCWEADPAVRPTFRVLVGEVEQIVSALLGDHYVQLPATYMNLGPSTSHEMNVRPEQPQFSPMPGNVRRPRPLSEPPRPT
Sequence of KIT (human), P10721 [A829P] (P10721 whole entry A829P, looked up): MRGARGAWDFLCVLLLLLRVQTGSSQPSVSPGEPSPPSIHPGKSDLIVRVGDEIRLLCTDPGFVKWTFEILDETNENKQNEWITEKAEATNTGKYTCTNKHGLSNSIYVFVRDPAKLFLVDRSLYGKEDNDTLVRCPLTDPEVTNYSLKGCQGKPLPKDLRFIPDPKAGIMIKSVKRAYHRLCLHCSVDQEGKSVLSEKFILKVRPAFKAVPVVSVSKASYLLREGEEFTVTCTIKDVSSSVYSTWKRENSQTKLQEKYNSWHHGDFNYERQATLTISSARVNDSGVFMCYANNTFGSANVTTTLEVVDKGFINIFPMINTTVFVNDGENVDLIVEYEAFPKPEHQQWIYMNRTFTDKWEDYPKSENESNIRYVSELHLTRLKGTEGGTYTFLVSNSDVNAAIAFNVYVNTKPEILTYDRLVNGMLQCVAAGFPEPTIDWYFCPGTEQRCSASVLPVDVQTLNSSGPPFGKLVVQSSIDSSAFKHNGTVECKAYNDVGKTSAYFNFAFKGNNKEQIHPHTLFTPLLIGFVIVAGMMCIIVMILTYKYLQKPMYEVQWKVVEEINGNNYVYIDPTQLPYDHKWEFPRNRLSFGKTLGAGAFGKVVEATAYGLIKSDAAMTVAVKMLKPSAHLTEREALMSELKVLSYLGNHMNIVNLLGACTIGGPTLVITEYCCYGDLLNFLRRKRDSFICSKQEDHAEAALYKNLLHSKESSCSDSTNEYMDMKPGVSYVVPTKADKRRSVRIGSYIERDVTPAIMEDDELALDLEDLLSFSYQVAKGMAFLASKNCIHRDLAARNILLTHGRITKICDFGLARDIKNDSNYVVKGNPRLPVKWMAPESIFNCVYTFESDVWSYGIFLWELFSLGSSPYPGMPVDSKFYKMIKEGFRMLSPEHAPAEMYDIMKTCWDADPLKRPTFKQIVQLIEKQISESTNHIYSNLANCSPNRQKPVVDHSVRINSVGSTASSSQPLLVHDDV
Sequence of HIPK1 (human) (Q86Z02 whole entry, looked up): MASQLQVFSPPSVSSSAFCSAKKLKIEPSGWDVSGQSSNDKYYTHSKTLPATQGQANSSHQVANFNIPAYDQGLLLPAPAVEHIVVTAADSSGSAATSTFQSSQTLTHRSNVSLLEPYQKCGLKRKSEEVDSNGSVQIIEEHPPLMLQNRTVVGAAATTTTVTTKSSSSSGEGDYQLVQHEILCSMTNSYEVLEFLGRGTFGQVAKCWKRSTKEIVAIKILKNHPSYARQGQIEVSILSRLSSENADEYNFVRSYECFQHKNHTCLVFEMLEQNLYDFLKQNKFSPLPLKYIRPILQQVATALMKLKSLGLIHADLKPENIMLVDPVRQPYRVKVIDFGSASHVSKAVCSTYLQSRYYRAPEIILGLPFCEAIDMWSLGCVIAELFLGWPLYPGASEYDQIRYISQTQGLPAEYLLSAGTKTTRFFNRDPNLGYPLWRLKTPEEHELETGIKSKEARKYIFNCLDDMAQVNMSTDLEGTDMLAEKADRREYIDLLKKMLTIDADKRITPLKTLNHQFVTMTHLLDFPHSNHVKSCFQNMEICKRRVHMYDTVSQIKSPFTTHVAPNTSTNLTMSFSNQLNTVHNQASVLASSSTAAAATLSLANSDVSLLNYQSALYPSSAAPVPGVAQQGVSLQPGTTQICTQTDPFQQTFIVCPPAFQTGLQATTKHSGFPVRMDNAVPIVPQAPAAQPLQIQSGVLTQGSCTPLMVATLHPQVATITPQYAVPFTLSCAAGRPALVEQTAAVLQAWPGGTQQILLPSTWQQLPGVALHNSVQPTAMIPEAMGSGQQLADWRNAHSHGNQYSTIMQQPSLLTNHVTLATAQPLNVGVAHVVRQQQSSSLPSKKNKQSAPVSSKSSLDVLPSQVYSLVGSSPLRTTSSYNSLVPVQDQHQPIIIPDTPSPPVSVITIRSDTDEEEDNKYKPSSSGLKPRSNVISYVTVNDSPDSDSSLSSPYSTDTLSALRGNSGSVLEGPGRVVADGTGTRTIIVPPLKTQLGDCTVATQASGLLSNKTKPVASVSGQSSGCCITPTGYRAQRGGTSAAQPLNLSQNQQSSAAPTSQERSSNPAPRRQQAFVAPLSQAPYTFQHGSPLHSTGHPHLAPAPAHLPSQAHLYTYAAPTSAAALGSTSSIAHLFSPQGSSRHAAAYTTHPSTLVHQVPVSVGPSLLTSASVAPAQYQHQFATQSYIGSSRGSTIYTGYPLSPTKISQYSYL

CC1=C(C(=O)Nc2cc3cn[nH]c3cc2F)C(c2ccc(C(F)(F)F)cc2)CC(=O)N1 (stereo not drawn)
kinase still bound, per cent of control (MST1R (human)): 55% | kinase still bound, per cent of control (WEE1 (human)): 94% | kinase still bound, per cent of control (MTOR (human)): 89% | kinase still bound, per cent of control (DCLK2 (human)): 87% | kinase still bound, per cent of control (AAK1 (human)): 70% | kinase still bound, per cent of control (CDC42BPG (human)): 83% | kinase still bound, per cent of control (RPS6KB1 (human)): 50% | kinase still bound, per cent of control (MAP3K6 (human)): 80% | kinase still bound, per cent of control (BRSK1 (human)): 93% | kinase still bound, per cent of control (PRKCQ (human)): 54% | kinase still bound, per cent of control (NEK5 (human)): 90% | kinase still bound, per cent of control (TTK (human)): 100% | kinase still bound, per cent of control (PAK4 (human)): 85% | kinase still bound, per cent of control (MAPK4 (human)): 100% | kinase still bound, per cent of control (PIP4K2B (human)): 100% | kinase still bound, per cent of control (MAP3K7 (human)): 78% | kinase still bound, per cent of control (CAMK2B (human)): 94% | kinase still bound, per cent of control (DAPK2 (human)): 92% | kinase still bound, per cent of control (CSF1R (human)): 68% | kinase still bound, per cent of control (SIK3 (human)): 94% | kinase still bound, per cent of control (MAPK13 (human)): 98% | kinase still bound, per cent of control (CSNK1G3 (human)): 90% | kinase still bound, per cent of control (STK11 (human)): 100% | kinase still bound, per cent of control (GSK3A (human)): 100% | kinase still bound, per cent of control (ULK1 (human)): 74% | kinase still bound, per cent of control (GAK (human)): 100% | kinase still bound, per cent of control (STK32A (human)): 52% | kinase still bound, per cent of control (MAP4K2 (human)): 96% | kinase still bound, per cent of control (NEK1 (human)): 91% | kinase still bound, per cent of control [1]: 12% | kinase still bound, per cent of control (PDGFRB (human)): 70% | kinase still bound, per cent of control [2]: 58% | kinase still bound, per cent of control (MAPK7 (human)): 82% | kinase still bound, per cent of control (MAP3K15 (human)): 77% | kinase still bound, per cent of control (HIPK1 (human)): 75% | kinase still bound, per cent of control (CDK7 (human)): 58% | kinase still bound, per cent of control (TAOK1 (human)): 53% | kinase still bound, per cent of control (TGFBR2 (human)): 85% | kinase still bound, per cent of control (PIM2 (human)): 100%

CCN1CCN(Cc2ccc(NC(=O)c3ccc(C)c(/C=C/c4cnc5[nH]ccc5c4OC)c3)cc2C(F)(F)F)CC1
kinase still bound, per cent of control (MST1R (human)): 100% | kinase still bound, per cent of control (WEE1 (human)): 100% | kinase still bound, per cent of control (MTOR (human)): 100% | kinase still bound, per cent of control (DCLK2 (human)): 100% | kinase still bound, per cent of control (AAK1 (human)): 26% | kinase still bound, per cent of control (CDC42BPG (human)): 16% | kinase still bound, per cent of control (RPS6KB1 (human)): 9% | kinase still bound, per cent of control (MAP3K6 (human)): 64% | kinase still bound, per cent of control (BRSK1 (human)): 100% | kinase still bound, per cent of control (PRKCQ (human)): 31% | kinase still bound, per cent of control (NEK5 (human)): 4.3% | kinase still bound, per cent of control (TTK (human)): 6.8% | kinase still bound, per cent of control (PAK4 (human)): 86% | kinase still bound, per cent of control (MAPK4 (human)): 100% | kinase still bound, per cent of control (PIP4K2B (human)): 0.4% | kinase still bound, per cent of control (MAP3K7 (human)): 4.8% | kinase still bound, per cent of control (CAMK2B (human)): 100% | kinase still bound, per cent of control (DAPK2 (human)): 100% | kinase still bound, per cent of control (CSF1R (human)): 0% | kinase still bound, per cent of control (SIK3 (human)): 100% | kinase still bound, per cent of control (MAPK13 (human)): 22% | kinase still bound, per cent of control (CSNK1G3 (human)): 48% | kinase still bound, per cent of control (STK11 (human)): 7.9% | kinase still bound, per cent of control (GSK3A (human)): 100% | kinase still bound, per cent of control (ULK1 (human)): 8.5% | kinase still bound, per cent of control (GAK (human)): 2.2% | kinase still bound, per cent of control (STK32A (human)): 100% | kinase still bound, per cent of control (MAP4K2 (human)): 0% | kinase still bound, per cent of control (NEK1 (human)): 89% | kinase still bound, per cent of control [1]: 12% | kinase still bound, per cent of control (PDGFRB (human)): 0.05% | kinase still bound, per cent of control [2]: 64% | kinase still bound, per cent of control (MAPK7 (human)): 73% | kinase still bound, per cent of control (MAP3K15 (human)): 100% | kinase still bound, per cent of control (HIPK1 (human)): 74% | kinase still bound, per cent of control (CDK7 (human)): 41% | kinase still bound, per cent of control (TAOK1 (human)): 0.75% | kinase still bound, per cent of control (TGFBR2 (human)): 5.7% | kinase still bound, per cent of control (PIM2 (human)): 100% | kinase still bound, per cent of control (PRKACA (human)): 100%

CCCS(=O)(=O)Nc1ccc(F)c(C(=O)c2c[nH]c3ncc(Cl)cc23)c1F
kinase still bound, per cent of control (MST1R (human)): 100% | kinase still bound, per cent of control (WEE1 (human)): 100% | kinase still bound, per cent of control (MTOR (human)): 58% | kinase still bound, per cent of control (DCLK2 (human)): 61% | kinase still bound, per cent of control (AAK1 (human)): 84% | kinase still bound, per cent of control (CDC42BPG (human)): 74% | kinase still bound, per cent of control (RPS6KB1 (human)): 58% | kinase still bound, per cent of control (MAP3K6 (human)): 96% | kinase still bound, per cent of control (BRSK1 (human)): 55% | kinase still bound, per cent of control (PRKCQ (human)): 79% | kinase still bound, per cent of control (NEK5 (human)): 100% | kinase still bound, per cent of control (TTK (human)): 60% | kinase still bound, per cent of control (PAK4 (human)): 57% | kinase still bound, per cent of control (MAPK4 (human)): 100% | kinase still bound, per cent of control (PIP4K2B (human)): 100% | kinase still bound, per cent of control (MAP3K7 (human)): 51% | kinase still bound, per cent of control (CAMK2B (human)): 63% | kinase still bound, per cent of control (DAPK2 (human)): 80% | kinase still bound, per cent of control (SIK3 (human)): 100% | kinase still bound, per cent of control (MAPK13 (human)): 85% | kinase still bound, per cent of control (CSNK1G3 (human)): 79% | kinase still bound, per cent of control (STK11 (human)): 79% | kinase still bound, per cent of control (GSK3A (human)): 100% | kinase still bound, per cent of control (ULK1 (human)): 44% | kinase still bound, per cent of control (GAK (human)): 40% | kinase still bound, per cent of control (STK32A (human)): 85% | kinase still bound, per cent of control (MAP4K2 (human)): 74% | kinase still bound, per cent of control (NEK1 (human)): 72% | kinase still bound, per cent of control [1]: 44% | kinase still bound, per cent of control (PDGFRB (human)): 0% | kinase still bound, per cent of control [2]: 67% | kinase still bound, per cent of control (MAPK7 (human)): 65% | kinase still bound, per cent of control (MAP3K15 (human)): 74% | kinase still bound, per cent of control (HIPK1 (human)): 36% | kinase still bound, per cent of control (CDK7 (human)): 69% | kinase still bound, per cent of control (TAOK1 (human)): 52% | kinase still bound, per cent of control (TGFBR2 (human)): 6.6% | kinase still bound, per cent of control (PIM2 (human)): 80% | kinase still bound, per cent of control (PRKACA (human)): 94%
